Publication PMC7915724 (2021)

Columns and labels:
Test in all cases: SPR
[1] = test system: biotin-Hairpin (duplex DNA) (DNA, hairpin, HEG (hexaethylene glycol) linker between 10 and 11) TATAGCTATATATAGCTATA; conditions: 100 mM KCl; 20 mM Tris-HCl pH 7.4, 25 °C; tested up to 50 μM
[2] = test system: biotin-Py24 (VEGF i-motif) (DNA, i motif) GACCCCGCCCCCGGCCCGCCCCGG; conditions: 100 mM KCl, 20 mM MES pH 5.5, 0.05% Tween-20, 25 °C
[3] = test system: biotin-Pu24 (VEGF G-quadruplex) (DNA, G4) CCGGGGCGGGCCGGGGGCGGGGTC; conditions: 100 mM KCl; 20 mM Tris-HCl pH 7.4, 25 °C; tested up to 50 μM
[4] = test system: biotin-Py24 (VEGF i-motif) (DNA, i motif) GACCCCGCCCCCGGCCCGCCCCGG; conditions: 100 mM KCl; 20 mM MES pH 5.5, 0.05% Tween-20, 25 °C; tested up to 50 μM

KD [1] [µM] | KD ([2]; tested up to 50 μM) [µM] | KD [3] [µM] | KD [4] [µM] | KD [2] [µM] | SMILES
> 50 | > 50 | > 50 | – | – | COC(=O)[C@]12CCC(C)(C)C[C@H]1[C@H]1C(=O)C[C@@H]3[C@@](C)(CCC(=O)NCCCN(C)C)[C@H](C(C)(C)O)CC[C@@]3(C)[C@]1(C)CC2
– | – | – | > 50 | – | COC(=O)[C@]12CCC(C)(C)C[C@H]1C1=CC[C@@H]3[C@@]4(C)C=C(C(=O)NCCCc5ccccc5)C(=O)C(C)(C)[C@@H]4CC[C@@]3(C)[C@]1(C)CC2
> 50 | – | > 50 | > 50 | – | COc1ccccc1N1CCN(C(=O)[C@]23CCC(C)(C)C[C@H]2C2=CC[C@@H]4[C@@]5(C)CC[C@H](O)C(C)(C)[C@@H]5CC[C@@]4(C)[C@]2(C)CC3)CC1
> 50 | – | > 50 | > 50 | – | CC1(C)CC[C@]2(C(=O)N3CCN(c4ccccn4)CC3)CC[C@]3(C)C(=CC[C@@H]4[C@@]5(C)CC[C@H](O)C(C)(C)[C@@H]5CC[C@]43C)[C@@H]2C1
– | – | – | > 50 | – | COC(=O)[C@]12CCC(C)(C)C[C@H]1[C@H]1C(=O)C[C@@H]3[C@@](C)(CCC(=O)Nc4ccc(OC)cc4)[C@H](C(C)(C)O)CC[C@@]3(C)[C@]1(C)CC2
> 50 | – | > 50 | > 50 | – | Cc1cn(CC(=O)N2CCN(C(=O)[C@]34CCC(C)(C)C[C@H]3C3=CC[C@@H]5[C@@]6(C)CC[C@H](O)C(C)(C)[C@@H]6CC[C@@]5(C)[C@]3(C)CC4)CC2)c(=O)[nH]c1=O
– | – | – | > 50 | – | CC1(C)CC[C@]2(C(=O)NCc3cn(Cc4ccc(C(F)(F)F)cc4)nn3)CC[C@]3(C)C(=CC[C@@H]4[C@@]5(C)CC[C@H](O)C(C)(C)[C@@H]5CC[C@]43C)[C@@H]2C1
– | – | – | > 50 | – | COC(=O)[C@]12CCC(C)(C)C[C@H]1C1=CC[C@@H]3[C@@]4(C)C=C(C(=O)NCCc5ccc(C(F)(F)F)cc5)C(=O)C(C)(C)[C@@H]4CC[C@@]3(C)[C@]1(C)CC2
> 50 | – | > 50 | > 50 | – | CC1(C)CC[C@]2(C(=O)N3CCN(c4ncccn4)CC3)CC[C@]3(C)C(=CC[C@@H]4[C@@]5(C)CC[C@H](O)C(C)(C)[C@@H]5CC[C@]43C)[C@@H]2C1
– | – | – | > 50 | – | CC1(C)CC[C@]2(C(=O)NCc3cn(CCCN4CCCC4)nn3)CC[C@]3(C)C(=CC[C@@H]4[C@@]5(C)CC[C@H](O)C(C)(C)[C@@H]5CC[C@]43C)[C@@H]2C1
– | – | – | > 50 | – | COC(=O)[C@]12CCC(C)(C)C[C@H]1[C@H]1C(=O)C[C@@H]3[C@@](C)(CCC(=O)NCCc4cccs4)[C@H](C(C)(C)O)CC[C@@]3(C)[C@]1(C)CC2
> 50 | – | > 50 | > 50 | – | CC1(C)CC[C@]2(C(=O)N3CCN(c4ccc(F)cc4F)CC3)CC[C@]3(C)C(=CC[C@@H]4[C@@]5(C)CC[C@H](O)C(C)(C)[C@@H]5CC[C@]43C)[C@@H]2C1
> 50 | > 50 | > 50 | – | – | CCN(CC)CCNC(=O)C1=C[C@]2(C)[C@H]3CC=C4[C@@H]5CC(C)(C)CC[C@]5(C(=O)OC)CC[C@@]4(C)[C@]3(C)CC[C@H]2C(C)(C)C1=O
– | – | > 50 | > 50 | – | CN(C)CCn1cc(CNC(=O)[C@]23CCC(C)(C)C[C@H]2C2=CC[C@@H]4[C@@]5(C)CC[C@H](O)C(C)(C)[C@@H]5CC[C@@]4(C)[C@]2(C)CC3)nn1
> 50 | – | > 50 | – | 12.0 | CC1(C)CC[C@]2(C(=O)NCc3cn([C@@H]4O[C@H](CO)[C@@H](O)[C@H](O)[C@H]4O)nn3)CC[C@]3(C)C(=CC[C@@H]4[C@@]5(C)CC[C@H](O)C(C)(C)[C@@H]5CC[C@]43C)[C@@H]2C1
– | – | – | > 50 | – | CC1(C)CC[C@]2(C(=O)NCc3cn(CCN4CCCC4)nn3)CC[C@]3(C)C(=CC[C@@H]4[C@@]5(C)CC[C@H](O)C(C)(C)[C@@H]5CC[C@]43C)[C@@H]2C1
> 50 | – | > 50 | – | 31.3 | COC(=O)[C@]12CCC(C)(C)C[C@H]1[C@H]1C(=O)C[C@@H]3[C@@](C)(CCC(=O)NCCCN4CCOCC4)[C@H](C(C)(C)O)CC[C@@]3(C)[C@]1(C)CC2
> 50 | – | > 50 | – | 10.6 | CC1(C)CC[C@]2(C(=O)NCc3cn(Cc4nc5ccccc5[nH]4)nn3)CC[C@]3(C)C(=CC[C@@H]4[C@@]5(C)CC[C@H](O)C(C)(C)[C@@H]5CC[C@]43C)[C@@H]2C1
– | – | – | > 50 | – | COC(=O)[C@]12CCC(C)(C)C[C@H]1[C@H]1C(=O)C[C@@H]3[C@@](C)(CCC(=O)Nc4ccc(OC(F)(F)F)cc4)[C@H](C(C)(C)O)CC[C@@]3(C)[C@]1(C)CC2
– | – | – | > 50 | – | COC(=O)[C@]12CCC(C)(C)C[C@H]1[C@H]1C(=O)C[C@@H]3[C@@](C)(CCC(=O)N4CCN(c5ccc(F)cc5F)CC4)[C@H](C(C)(C)O)CC[C@@]3(C)[C@]1(C)CC2

KD [1] [µM] | KD ([2]; tested up to 50 μM) [µM] | KD [3] [µM] | KD [4] [µM] | KD [2] [µM] | SMILES
> 50 | – | > 50 | > 50 | – | CC1(C)CC[C@]2(C(=O)NCc3cn(CCCc4ccccc4)nn3)CC[C@]3(C)C(=CC[C@@H]4[C@@]5(C)CC[C@H](O)C(C)(C)[C@@H]5CC[C@]43C)[C@@H]2C1
> 50 | > 50 | > 50 | – | – | CCOC(=O)Cn1cc(CNC(=O)[C@]23CCC(C)(C)C[C@H]2C2=CC[C@@H]4[C@@]5(C)CC[C@H](O)C(C)(C)[C@@H]5CC[C@@]4(C)[C@]2(C)CC3)nn1
> 50 | – | > 50 | – | 12.1 | CC1(C)CC[C@]2(C(=O)NCCc3c[nH]cn3)CC[C@]3(C)C(=CC[C@@H]4[C@@]5(C)CC[C@H](O)C(C)(C)[C@@H]5CC[C@]43C)[C@@H]2C1
> 50 | – | > 50 | – | 13.8 | CC1(C)CC[C@]2(C(=O)NCCNS(=O)(=O)N3CCOCC3)CC[C@]3(C)C(=CC[C@@H]4[C@@]5(C)CC[C@H](O)C(C)(C)[C@@H]5CC[C@]43C)[C@@H]2C1
– | – | – | > 50 | – | CC1(C)CC[C@]2(C(=O)NCc3cn(CCCN4CCOCC4)nn3)CC[C@]3(C)C(=CC[C@@H]4[C@@]5(C)CC[C@H](O)C(C)(C)[C@@H]5CC[C@]43C)[C@@H]2C1
> 50 | > 50 | > 50 | – | – | COC(=O)[C@]12CCC(C)(C)C[C@H]1C1=CC[C@@H]3[C@@]4(C)C=C(C(=O)O)C(=O)C(C)(C)[C@@H]4CC[C@@]3(C)[C@]1(C)CC2
> 50 | – | > 50 | – | 21.1 | COC(=O)[C@]12CCC(C)(C)C[C@H]1[C@H]1C(=O)C[C@@H]3[C@@](C)(CCC(=O)NCCCn4ccnc4)[C@H](C(C)(C)O)CC[C@@]3(C)[C@]1(C)CC2
> 50 | – | > 50 | > 50 | – | CC1(C)CC[C@]2(C(=O)NCc3cn(Cc4ccccc4)nn3)CC[C@]3(C)C(=CC[C@@H]4[C@@]5(C)CC[C@H](O)C(C)(C)[C@@H]5CC[C@]43C)[C@@H]2C1
> 50 | – | > 50 | > 50 | – | CC1(C)CC[C@]2(C(=O)N3CCN(C(=O)Cn4cnc5[nH]c(=O)[nH]c(=O)c54)CC3)CC[C@]3(C)C(=CC[C@@H]4[C@@]5(C)CC[C@H](O)C(C)(C)[C@@H]5CC[C@]43C)[C@@H]2C1
– | – | – | > 50 | – | COC(=O)[C@]12CCC(C)(C)C[C@H]1[C@H]1C(=O)C[C@@H]3[C@@](C)(CCC(=O)Nc4ccc(F)cc4)[C@H](C(C)(C)O)CC[C@@]3(C)[C@]1(C)CC2
> 50 | > 50 | > 50 | – | – | CC1(C)CC[C@]2(C(=O)N3CCC(N4CCCCC4)CC3)CC[C@]3(C)C(=CC[C@@H]4[C@@]5(C)CC[C@H](O)C(C)(C)[C@@H]5CC[C@]43C)[C@@H]2C1
– | – | – | > 50 | – | CC1(C)CC[C@]2(C(=O)NCc3cn(CCN4CCOCC4)nn3)CC[C@]3(C)C(=CC[C@@H]4[C@@]5(C)CC[C@H](O)C(C)(C)[C@@H]5CC[C@]43C)[C@@H]2C1
– | – | – | > 50 | – | CC(=O)OC[C@H]1O[C@@H](n2cc(CNC(=O)[C@]34CCC(C)(C)C[C@H]3C3=CC[C@@H]5[C@@]6(C)CC[C@H](O)C(C)(C)[C@@H]6CC[C@@]5(C)[C@]3(C)CC4)nn2)[C@H](OC(C)=O)[C@@H](OC(C)=O)[C@@H]1OC(C)=O
– | – | – | > 50 | – | COC(=O)[C@]12CCC(C)(C)C[C@H]1C1=CC[C@@H]3[C@@]4(C)C=C(C(=O)NCCCN5CCCC5)C(=O)C(C)(C)[C@@H]4CC[C@@]3(C)[C@]1(C)CC2
> 50 | – | > 50 | – | 19.3 | CC1(C)CC[C@]2(C(=O)NCc3cn(CCC#N)nn3)CC[C@]3(C)C(=CC[C@@H]4[C@@]5(C)CC[C@H](O)C(C)(C)[C@@H]5CC[C@]43C)[C@@H]2C1
> 50 | > 50 | > 50 | – | – | COc1ccc(C(=O)NCCNC(=O)[C@]23CCC(C)(C)C[C@H]2C2=CC[C@@H]4[C@@]5(C)CC[C@H](O)C(C)(C)[C@@H]5CC[C@@]4(C)[C@]2(C)CC3)c(OC)c1
> 50 | – | > 50 | > 50 | – | CC1(C)CC[C@]2(C(=O)N3CCN(c4cccc(C(F)(F)F)c4)CC3)CC[C@]3(C)C(=CC[C@@H]4[C@@]5(C)CC[C@H](O)C(C)(C)[C@@H]5CC[C@]43C)[C@@H]2C1
> 50 | – | > 50 | – | 12.3 | CC1(C)CC[C@]2(C(=O)NCc3cn(-c4ncccn4)nn3)CC[C@]3(C)C(=CC[C@@H]4[C@@]5(C)CC[C@H](O)C(C)(C)[C@@H]5CC[C@]43C)[C@@H]2C1
> 50 | – | > 50 | > 50 | – | CC1(C)CC[C@]2(C(=O)NCCNC(=O)c3ccccc3Nc3ccccc3)CC[C@]3(C)C(=CC[C@@H]4[C@@]5(C)CC[C@H](O)C(C)(C)[C@@H]5CC[C@]43C)[C@@H]2C1
